Experimental data published in ChEMBL document CHEMBL4184222, “A multifaceted approach to identify non-specific enzyme inhibition: Application to Mycobacterium tuberculosis shikimate kinase” (Bioorg Med Chem Lett, 2018).
In brackets after ≈: the same amount, converted by molar mass.

Experiments:
[1] = Aggregation property of the compound in water at pH 7 assessed as light scattering intensity counts at 100 uM in presence of Triton X-100 by dynamic light scattering method; type: physicochemical; details: buffer, pH 7, 100 µM
[2] = Aggregation property of the compound in water at pH 7 assessed as particle size at 100 uM in presence of Triton X-100 by dynamic light scattering method; type: physicochemical; details: buffer, pH 7, 100 µM
[3] = Aggregation property of the compound in ammonium acetate buffer at pH 7.6 assessed as particle size at 100 uM in presence of Triton X-100 by dynamic light scattering method; type: physicochemical; details: pH 7.6, 100 µM
[4] = Aggregation property of the compound in water at pH 7 assessed as particle size at 100 uM in absence of Triton X-100 by dynamic light scattering method; type: physicochemical; details: buffer, pH 7, 100 µM
[5] = system: Mycobacterium tuberculosis; assay: Antimycobacterial activity against Mycobacterium tuberculosis H37Rv; type: functional
[6] = Aggregation property of the compound in ammonium acetate buffer at pH 7.6 assessed as light scattering intensity counts at 100 uM in absence of Triton X-100 by dynamic light scattering method; type: physicochemical; details: pH 7.6, 100 µM
[7] = Aggregation property of the compound in water at pH 7 assessed as light scattering intensity counts at 100 uM in absence of Triton X-100 by dynamic light scattering method; type: physicochemical; details: buffer, pH 7, 100 µM
[8] = Aggregation property of the compound in ammonium acetate buffer at pH 7.6 assessed as particle size at 100 uM in absence of Triton X-100 by dynamic light scattering method; type: physicochemical; details: pH 7.6, 100 µM
[9] = Aggregation property of the compound in ammonium acetate buffer at pH 7.6 assessed as light scattering intensity counts at 100 uM in presence of Triton X-100 by dynamic light scattering method; type: physicochemical; details: pH 7.6, 100 µM
[10] = system: Mycobacterium tuberculosis; assay: Inhibition of Mycobacterium tuberculosis shikimate kinase assessed as reduction in S3P production at <50 uM pre-incubated for 30 mins before ATP and shikimate substrate addition by LC-MS assay
[11] = system: Mycobacterium tuberculosis; assay: Inhibition of Mycobacterium tuberculosis shikimate kinase assessed as reduction in S3P production at 100 uM pre-incubated with 0.02 uM enzyme for 30 mins before ATP and shikimate substrate addition in presence of Triton X-100 by LC-MS assay
[12] = system: Mycobacterium tuberculosis; assay: Inhibition of Mycobacterium tuberculosis shikimate kinase assessed as reduction in S3P production at 100 uM pre-incubated with 0.2 uM enzyme for 30 mins before ATP and shikimate substrate addition in absence of Triton X-100 by LC-MS assay
[13] = system: Mycobacterium tuberculosis; assay: Inhibition of Mycobacterium tuberculosis shikimate kinase assessed as reduction in S3P production at 100 uM pre-incubated with 0.02 uM enzyme for 30 mins before ATP and shikimate substrate addition in absence of Triton X-100 by LC-MS assay
[14] = Inhibition of Mycobacterium tuberculosis shikimate kinase assessed as reduction in S3P production […] pre-incubated with 0.015 uM enzyme for 30 mins before ATP and shikimate substrate addition by LC-MS assay
[15] = system: Mycobacterium tuberculosis; assay: Inhibition of Mycobacterium tuberculosis shikimate kinase assessed as reduction in S3P production at 100 uM pre-incubated with 0.2 uM enzyme for 30 mins before ATP and shikimate substrate addition in presence of Triton X-100 by LC-MS assay
[16] = Aggregation property of the compound in ammonium acetate buffer at pH 7.6 assessed as particle size at 100 uM in presence of Triton X-100 by transmission electron microscopy; type: physicochemical; details: pH 7.6, 100 µM
[17] = Aggregation property of the compound in ammonium acetate buffer at pH 7.6 assessed as particle size at 100 uM in absence of Triton X-100 by transmission electron microscopy; type: physicochemical; details: pH 7.6, 100 µM

SMILES	Activity [1] [kCounts]	Activity [2] [nm]	Activity [3] [nm]	Activity [4] [nm]	IC90 [5] [µg/mL]	Activity [6] [kCounts]	Activity [7] [kCounts]	Activity [8] [nm]	Activity [9] [kCounts]	inhibition [10] [%]	inhibition [11] [%]	inhibition [12] [%]	inhibition [13] [%]	IC50 [14] [µM]	inhibition [15] [%]	Activity [16] [um]	Activity [17] [um]
CCCCC(=O)Nc1nnc(-c2ccc3c(c2)CCCC3)o1	100	259	255	1324	3.04 (≈ 10.2 µM)	280	260	1432	131	> 90	–	–	–	–	–	–	–
CCSc1ccc(C(=O)Nc2nnc(-c3ccc4c(c3)CCCC4)o2)cc1	152	410	480	1921	1.93 (≈ 5.09 µM)	340	330	2005	158	> 90	–	–	–	–	–	–	–
O=C(Nc1nnc(-c2ccccc2Cl)o1)c1cccc(Oc2ccccc2)c1	170	481	516	2423	0.86 (≈ 2.19 µM)	350	330	2850	180	> 90	0	0	90	38.7	0	–	–
O=C(/C=C/c1ccccc1)Nc1nnc(-c2ccc3c(c2)CCCC3)o1	138	353	390	1820	1.68 (≈ 4.86 µM)	310	306	1820	141	> 90	0	0	95	58.4	0	–	–
Cc1ccc(-c2nnc(NC(=O)c3ccc([N+](=O)[O-])o3)o2)c(C)c1	72	131	131	823	0.69 (≈ 2.1 µM)	190	182	851	83	> 90	0	0	91.6	65.7	0	–	–
CCc1cccc2sc(N(CCCn3ccnc3)C(=O)/C=C/c3cccs3)nc12	270	908	817	3823	0.83 (≈ 1.96 µM)	400	380	3776	286	> 90	–	–	–	–	–	–	–
Cc1ccc(C)c(-c2nnc(NC(=O)c3ccc([N+](=O)[O-])s3)o2)c1	80	176	151	973	3.09 (≈ 8.97 µM)	240	237	986	85	> 90	–	–	–	–	–	–	–
O=C(c1cccs1)N(CCCn1ccnc1)c1nc2c(F)cc(F)cc2s1	142	398	470	1852	2.38 (≈ 5.88 µM)	321	300	1934	150	> 90	–	–	–	–	–	–	–
CC(C)(C)C(=O)Nc1nnc(-c2ccc(Br)cc2)o1	92	198	201	1192	< 0.2	260	250	1211	100	> 90	–	–	–	–	–	–	–
Cc1ccc(-c2nnc(NC(=O)c3ccccc3Cl)o2)c(C)c1	95	203	212	1301	< 0.2	270	255	1321	115	> 90	–	–	–	–	–	–	–
CCOc1ccc(C(=O)Nc2nnc(-c3ccc(C)cc3C)o2)cc1	122	275	354	1583	1.8 (≈ 5.34 µM)	300	280	1620	123	> 90	–	–	–	–	–	–	–
Cc1cc(C)c2sc(N3CCCC3)nc2c1	130	343	373	1762	1.75 (≈ 7.53 µM)	300	290	1750	139	> 90	–	–	–	–	–	–	–
CSc1ccc2nc(Nc3nc4ccc(NC(C)=O)cc4s3)sc2c1	115	275	271	1438	< 0.2	285	270	1531	122	> 90	0	0	97.4	60.6	0	0.03	0.7
